# Measurements published in ChEMBL document CHEMBL5143743, “Novel Thioxothiazolo[3,4-a]quinazolin-5(4H)-one Derivatives as BKCa Channel Activators for Urinary Incontinence” (ACS Med Chem Lett, 2022).
# Activity calls are given as the source filed them. The rule behind the calls is not given here.
# What was measured:
# [1] = tested on: AD293; assay: Activation of human Slo G803D/N806K mutant expressed in human AD293 cells assessed as increase in channel activity by measuring change in relative fluorescence unit at 6 uM measured at 2 secs interval for 80 secs by FluxOR based fluorescence assay; format: cell-based; conditions: filed as activator, time 80.0 sec
# [2] = tested on: AD293; assay: Activation of human Slo G803D/N806K mutant expressed in human AD293 cells assessed as initial velocity of channel activation at 6 uM measured at 2 secs interval for 4 secs by FluxOR based fluorescence assay; format: cell-based; conditions: filed as activator, time 4.0 sec
# [3] = (§1) Activation of human Slo G803D/N806K mutant expressed in human AD293 cells measured at 2 secs interval for 120 secs by FluxOR based fluorescence assay; format: cell-based
# [4] = Stability in human liver microsomes assessed as parent compound remaining at 1 uM measured after 30 mins in presence of NADPH regeneration system by LC-MS/MS analysis; format: ADME, Microsome; conditions: read-out: Stability
# [5] = Oral bioavailability in Sprague-Dawley rat at 10 mg/kg by LC-MS analysis; format: ADME, organism-based; conditions: in vivo
# [6] = target: Calcium-activated potassium channel subunit alpha-1 (Rattus norvegicus) (UniProt Q62976); assay: Activation of rat Slo expressed in Xenopus laevis oocytes at 10 uM with 100 mV holding potential by patch-clamp electrophysiological method; format: cell-based; conditions: Oocyte, filed as activator
# Calcium-activated potassium channel subunit alpha-1 (Rattus norvegicus), sequence (Q62976 whole entry): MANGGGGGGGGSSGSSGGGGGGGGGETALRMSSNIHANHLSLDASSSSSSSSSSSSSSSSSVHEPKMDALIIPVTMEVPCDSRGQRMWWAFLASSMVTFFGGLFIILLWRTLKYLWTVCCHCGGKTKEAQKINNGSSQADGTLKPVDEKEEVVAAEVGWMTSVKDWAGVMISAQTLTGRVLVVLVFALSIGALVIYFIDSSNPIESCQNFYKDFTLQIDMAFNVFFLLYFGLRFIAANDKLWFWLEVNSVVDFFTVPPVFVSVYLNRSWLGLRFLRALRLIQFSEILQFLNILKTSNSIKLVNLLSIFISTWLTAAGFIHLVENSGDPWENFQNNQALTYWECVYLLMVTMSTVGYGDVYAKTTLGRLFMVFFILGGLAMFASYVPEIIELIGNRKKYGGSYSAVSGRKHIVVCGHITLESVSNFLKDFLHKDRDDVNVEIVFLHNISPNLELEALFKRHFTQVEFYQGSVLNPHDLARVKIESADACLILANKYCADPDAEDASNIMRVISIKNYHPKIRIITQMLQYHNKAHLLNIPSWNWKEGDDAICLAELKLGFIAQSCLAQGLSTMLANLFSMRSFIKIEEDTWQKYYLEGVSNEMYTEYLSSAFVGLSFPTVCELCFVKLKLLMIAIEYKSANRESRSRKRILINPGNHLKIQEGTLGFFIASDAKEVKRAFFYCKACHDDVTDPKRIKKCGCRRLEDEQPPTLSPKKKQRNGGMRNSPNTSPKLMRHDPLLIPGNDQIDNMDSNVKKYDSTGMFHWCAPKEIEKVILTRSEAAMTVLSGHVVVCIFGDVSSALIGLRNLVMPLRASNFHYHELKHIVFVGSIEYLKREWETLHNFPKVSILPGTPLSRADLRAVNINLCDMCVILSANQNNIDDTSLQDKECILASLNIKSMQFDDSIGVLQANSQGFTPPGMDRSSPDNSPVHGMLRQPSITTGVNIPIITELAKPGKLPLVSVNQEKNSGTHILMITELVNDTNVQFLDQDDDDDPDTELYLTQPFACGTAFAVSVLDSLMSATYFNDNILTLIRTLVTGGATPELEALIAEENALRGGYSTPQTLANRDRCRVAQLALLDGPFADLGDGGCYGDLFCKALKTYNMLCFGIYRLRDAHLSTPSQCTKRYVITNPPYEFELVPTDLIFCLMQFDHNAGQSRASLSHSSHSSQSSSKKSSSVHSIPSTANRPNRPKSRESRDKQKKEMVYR
# [7] = tested on: AD293; assay: Activation of human Slo G803D/N806K mutant expressed in human AD293 cells assessed as increase in initial velocity at 5 uM measured at 2 secs interval for 4 secs by FluxOR based fluorescence assay; format: cell-based; conditions: filed as activator, time 4.0 sec
# [8] = target: Calcium-activated potassium channel subunit alpha-1 (Rattus norvegicus) (UniProt Q62976); assay: Activation of rat Slo expressed in Xenopus laevis oocytes assessed as increase in maximum conductance at 10 uM with 100 mV holding potential by patch-clamp electrophysiological method relative to control; format: cell-based; conditions: Oocyte, filed as activator
# [9] = target: Calcium-activated potassium channel subunit alpha-1 (Rattus norvegicus) (UniProt Q62976); assay: Activation of rat Slo expressed in Xenopus laevis oocytes assessed as intracellular shift in voltage at half activation at 10 uM with 100 mV holding potential by patch-clamp electrophysiological method; format: cell-based; conditions: Oocyte, filed as activator
# [10] = AUC (0 to 8 hrs) in Sprague-Dawley rat at 10 mg/kg, po by LC-MS analysis; format: ADME, organism-based; parameters: time < 8 hr, dose 10 mg/kg, route po; conditions: in vivo
# [11] = target: Calcium-activated potassium channel subunit alpha-1 (Rattus norvegicus) (UniProt Q62976); assay: Activation of rat Slo expressed in Xenopus laevis oocytes assessed as shift in voltage at half activation at 10 uM with 100 mV holding potential by patch-clamp electrophysiological method; format: cell-based; conditions: Oocyte, filed as activator
# [12] = AUC (infinity) in Sprague-Dawley rat at 5 mg/kg, iv by LC-MS analysis; format: ADME, organism-based; parameters: time infinity, dose 5 mg/kg, route iv; conditions: in vivo
# [13] = Cmax in Sprague-Dawley rat at 10 mg/kg, po by LC-MS analysis; format: ADME, organism-based; parameters: dose 10 mg/kg, route po; conditions: in vivo
# [14] = Protein binding in rat plasma at 5 uM measured after 4 hrs by LC-MS/MS analysis; format: ADME, cell-free; conditions: read-out: PPB
# [15] = Volume of distribution at steady state in Sprague-Dawley rat at 5 mg/kg, iv by LC-MS analysis; format: ADME, organism-based; conditions: in vivo, read-out: Vdss
# [16] = tested on: Rattus norvegicus; assay: Inhibition of overactive bladder activity in spontaneously hypertensive rat assessed as reduction in voiding frequency at 10 mg/kg, po measured after 3 hrs; format: functional, organism-based
# [17] = tested on: AD293; assay: as §1; format: cell-based; conditions: filed as activator, time 120.0 sec, DDE = dose-dependent effect
# [18] = Clearance in Sprague-Dawley rat at 5 mg/kg, iv by LC-MS analysis; format: ADME, organism-based; conditions: in vivo
# [19] = tested on: AD293; assay: Activation of human Slo G803D/N806K mutant expressed in human AD293 cells assessed as increase in initial velocity at 1 uM measured at 2 secs interval for 120 secs by FluxOR based fluorescence assay; format: cell-based; conditions: filed as activator, time 120.0 sec
# [20] = target: Calcium-activated potassium channel subunit alpha-1 (Rattus norvegicus) (UniProt Q62976); assay: Activation of rat Slo expressed in Xenopus laevis oocytes assessed as delayed channel closing 10 uM with 100 mV holding potential by patch-clamp electrophysiological method; format: cell-based; conditions: Oocyte, filed as activator
# [21] = target: Calcium-activated potassium channel subunit alpha-1 (Rattus norvegicus) (UniProt Q62976); assay: Activation of rat Slo expressed in Xenopus laevis oocytes assessed as shortened channel opening 10 uM with 100 mV holding potential by patch-clamp electrophysiological method; format: cell-based; conditions: Oocyte, filed as activator
# [22] = target: Calcium-activated potassium channel subunit alpha-1 (Rattus norvegicus) (UniProt Q62976); assay: Activation of rat Slo expressed in Xenopus laevis oocytes assessed as increase in intracellular maximum conductance at 10 uM with 100 mV holding potential by patch-clamp electrophysiological method relative to control; format: cell-based; conditions: Oocyte, filed as activator
# [23] = tested on: Rattus norvegicus; assay: Inhibition of overactive bladder activity in spontaneously hypertensive rat assessed as reduction in voiding frequency at 50 mg/kg, po measured after 3 hrs relative to control; format: functional
# [24] = Half life in Sprague-Dawley rat at 5 mg/kg, iv by LC-MS analysis; format: ADME, organism-based; conditions: in vivo
# [25] = AUC (infinity) in Sprague-Dawley rat at 10 mg/kg, po by LC-MS analysis; format: ADME, organism-based; parameters: time infinity, dose 10 mg/kg, route po; conditions: in vivo
# [26] = Tmax in Sprague-Dawley rat at 10 mg/kg, po by LC-MS analysis; format: ADME, organism-based; conditions: in vivo
# [27] = AUC (0 to 8 hrs) in Sprague-Dawley rat at 5 mg/kg, iv by LC-MS analysis; format: ADME, organism-based; parameters: time < 8 hr, dose 5 mg/kg, route iv; conditions: in vivo
# [28] = Half life in Sprague-Dawley rat at 10 mg/kg, po by LC-MS analysis; format: ADME, organism-based; conditions: in vivo
# [29] = Protein binding in human plasma at 5 uM measured after 4 hrs by LC-MS/MS analysis; format: ADME, cell-free; conditions: read-out: PPB
compound,measurement,setting,value
O=C(Nc1ccccc1)c1sc(=S)n2c1[nH]c(=O)c1ccc(Cl)cc12,Activity,[1],1.56 RFU
same,V0,[2],0.84 s⁻¹
NC(=O)c1sc(=S)n2c1[nH]c(=O)c1ccccc12,Activity,[1],0.96 RFU
same,V0,[2],0.32 s⁻¹
Cc1cccc(NC(=O)c2sc(=S)n3c2[nH]c(=O)c2cc(Br)ccc23)c1,Activity,[1],4.98 RFU
same,V0,[2],9.77 s⁻¹
same,EC50,[3],5.74 µM
O=C(Nc1cccc(Cl)c1)c1sc(=S)n2c1[nH]c(=O)c1cc(Br)ccc12,Activity,[1],3.56 RFU
same,V0,[2],16.1 s⁻¹
same,EC50,[3],4.85 µM
Cc1ccccc1NC(=O)c1sc(=S)n2c1[nH]c(=O)c1cc(Br)ccc12,Activity,[1],3.68 RFU
same,V0,[2],9.4 s⁻¹
same,EC50,[3],4.6 µM
Cc1ccc(NC(=O)c2sc(=S)n3c2[nH]c(=O)c2cc(Br)ccc23)cc1,Activity,[1],1.41 RFU
same,V0,[2],0.71 s⁻¹
COc1cccc(NC(=O)c2sc(=S)n3c2[nH]c(=O)c2cc(Br)ccc23)c1,Activity,[1],3.35 RFU
same,V0,[2],6 s⁻¹
same,EC50,[3],6.6 µM
O=C(Nc1cccc(OC(F)(F)F)c1)c1sc(=S)n2c1[nH]c(=O)c1cc(Br)ccc12,Activity,[1],4.37 RFU
same,V0,[2],14.8 s⁻¹
same,EC50,[3],3.82 µM
O=C(O)c1sc(=S)n2c1[nH]c(=O)c1ccccc12,Activity,[1],1.38 RFU
same,V0,[2],0.38 s⁻¹
same,EC50,[3],12.7 µM
Cc1ccc2c(c1)c(=O)[nH]c1c(C(=O)Nc3ccccc3)sc(=S)n12,Activity,[1],1.16 RFU
same,V0,[2],0.32 s⁻¹
O=C(Nc1ccccc1)c1sc(=S)n2c1[nH]c(=O)c1cc(Cl)ccc12,Activity,[1],1.18 RFU
same,V0,[2],0.38 s⁻¹
O=C(Nc1cccc(F)c1)c1sc(=S)n2c1[nH]c(=O)c1cc(Br)ccc12,Activity,[1],2.85 RFU
same,V0,[2],12.6 s⁻¹
same,EC50,[3],1.14 µM
same,"remaining at 0.5 h, 1 µM",[4],56%
Cc1ccc2c(=O)[nH]c3c(C(=O)Nc4ccccc4)sc(=S)n3c2c1,Activity,[1],1.06 RFU
same,V0,[2],0.23 s⁻¹
O=C(Nc1cccc(O)c1)c1sc(=S)n2c1[nH]c(=O)c1cc(Br)ccc12,Activity,[1],4.88 RFU
same,V0,[2],4.03 s⁻¹
same,EC50,[3],11.2 µM
O=C(Nc1ccccc1)c1sc(=S)n2c1[nH]c(=O)c1ccc(Br)cc12,Activity,[1],1.25 RFU
same,V0,[2],0.56 s⁻¹
O=C(NCc1ccccc1)c1sc(=S)n2c1[nH]c(=O)c1ccccc12,Activity,[1],1.1 RFU
same,V0,[2],0.26 s⁻¹
O=C(Nc1cc(C(F)(F)F)cc(C(F)(F)F)c1)c1sc(=S)n2c1[nH]c(=O)c1cc(Br)ccc12,Activity,[1],2.28 RFU
same,V0,[2],2.08 s⁻¹
same,EC50,[3],17.3 µM
O=C(Nc1cccc(C(F)(F)F)c1)c1sc(=S)n2c1[nH]c(=O)c1cc(Br)ccc12,Activity,[1],3.35 RFU
same,bioavailability,[5],25.4%
same,Activity,[6],Active
same,Activity,[7],Active
same,fold change (FC),[8],1.5
same,delta(V1/2),[9],7.5 mV
same,AUC,[10],13.64 uM.hr/ml
same,delta(V1/2),[11],42.6 mV
same,AUC,[12],30.63 uM.hr/ml
same,Cmax,[13],1190 ng/mL
same,"fraction unbound at 4 h, 5 µM",[14],< 0.03
same,Vd,[15],1.83 L/kg
same,V0,[2],16.8 s⁻¹
same,inhibition,[16],Active
same,EC50,[3],2.89 µM
same,Activity,[17],Dde
same,clearance,[18],4.5 mL/min/kg
same,Activity,[19],Active
same,Activity,[20],Active
same,Activity,[21],Active
same,"remaining at 0.5 h, 1 µM",[4],76%
same,fold change (FC),[22],1.3
same,inhibition in vivo at 50 mg/kg,[23],33%
same,half-life,[24],6.59 h
same,AUC,[25],17.2 uM.hr/ml
same,Tmax,[26],6.67 h
same,AUC,[27],26.8 uM.hr/ml
same,half-life,[28],8.5 h
same,"fraction unbound at 4 h, 5 µM",[29],< 0.03
FC(F)(F)c1cc(NC(=S)Nc2ccc(Br)cc2-c2nnn[nH]2)cc(C(F)(F)F)c1,Activity,[1],1.86 RFU
same,V0,[2],1.63 s⁻¹
same,EC50,[3],14.9 µM
O=C(Nc1ccccc1)c1sc(=S)n2c1[nH]c(=O)c1cc(Br)ccc12,Activity,[1],3.83 RFU
same,V0,[2],5.51 s⁻¹
same,EC50,[3],12.3 µM
O=C(Nc1ccccc1)c1sc(=S)n2c1[nH]c(=O)c1ccccc12,Activity,[1],1.03 RFU
same,V0,[2],0.42 s⁻¹
